As usually defined, the pIC50 is −log10 of the IC50, conventionally taken in molar units.

pIC50: −log10 of the molar value.

This is an account of results in patent publication US20240116985A1, “STAPLED PEPTIDES AND METHODS THEREOF” (priority 2020, published 2024).

The target of the experiment is T1, full-length beta-Catenin (Uniprot ID P35222) (Homo sapiens, UniProt P35222).
T1 construct: 10 nM full-length beta-Catenin (Uniprot ID P35222)
T1 sequence (P35222 1-781): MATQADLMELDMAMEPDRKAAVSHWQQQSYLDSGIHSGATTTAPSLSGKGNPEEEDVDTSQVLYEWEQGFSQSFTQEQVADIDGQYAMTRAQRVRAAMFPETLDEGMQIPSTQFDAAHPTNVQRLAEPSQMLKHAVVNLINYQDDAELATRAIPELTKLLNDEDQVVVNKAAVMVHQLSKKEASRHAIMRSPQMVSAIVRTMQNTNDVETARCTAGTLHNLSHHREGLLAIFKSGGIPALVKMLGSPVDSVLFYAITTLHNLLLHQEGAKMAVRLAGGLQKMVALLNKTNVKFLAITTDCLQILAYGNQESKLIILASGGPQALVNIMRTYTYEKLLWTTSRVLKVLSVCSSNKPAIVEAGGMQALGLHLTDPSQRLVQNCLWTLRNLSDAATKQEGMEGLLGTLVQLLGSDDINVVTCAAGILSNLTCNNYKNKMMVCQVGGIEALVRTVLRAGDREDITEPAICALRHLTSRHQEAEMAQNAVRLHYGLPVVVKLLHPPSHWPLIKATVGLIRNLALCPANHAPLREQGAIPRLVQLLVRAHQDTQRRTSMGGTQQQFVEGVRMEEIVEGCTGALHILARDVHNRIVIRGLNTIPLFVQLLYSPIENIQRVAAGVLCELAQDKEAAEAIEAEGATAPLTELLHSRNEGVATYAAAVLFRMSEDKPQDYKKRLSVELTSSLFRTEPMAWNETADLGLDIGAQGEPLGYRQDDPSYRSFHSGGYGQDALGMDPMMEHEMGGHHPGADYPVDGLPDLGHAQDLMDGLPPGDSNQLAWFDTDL
Nature of the experiment: Fluorescence polarization IC50 (beta-catenin / 5FAM-TCF4 10-53 competition). Format: binding. To be noted: fluorescence polarization; read-out: beta-Catenin FP IC50. On the technique in general: Fluorescence polarisation rises when a labelled molecule tumbles more slowly, as on binding a larger partner.

For `CC(=O)N1CCC[C@]12CC=CCCCC1(CCCC=CCCCOC(=O)N3CC[C@@](C(=O)N[C@@H](Cc4ccsc4)C(=O)N[C@@H](Cc4csc5ccccc45)C(=O)N[C@H](C(N)=O)C(C)C)(C3)NC(=O)[C@H](CC(C)C)NC(=O)[C@H](Cc3ccccc3)NC(=O)[C@H](C)NC(=O)[C@H](C)NC(=O)[C@H](CN(CC(=O)O)CC(F)(F)F)NC(=O)[C@H](CC(=O)O)NC1=O)NC(=O)[C@H](CC(C)(C)C)NC(=O)[C@H](CC(=O)O)NC2=O` (stereo partly drawn) [I-1751, Ac-PL3-Asp-Npg-B5-Asp-TfeGA-Ala-Ala-Phe-Leu-PyrS2-3Thi-BztA-Val-NH2], the pIC50 is 6.98.
Take `CC(=O)N1CCC[C@]12CC=CCCCC1(CCCC=CCCCOC(=O)N3CC[C@@](C(=O)N[C@@H](Cc4ccsc4)C(=O)N[C@@H](Cc4csc5ccccc45)C(=O)N[C@H](C(N)=O)C(C)C)(C3)NC(=O)[C@H](CC(C)C)NC(=O)[C@H](Cc3ccccc3)NC(=O)[C@H](C)NC(=O)[C@H](C)NC(=O)[C@H](CN(CC(=O)O)CC(F)(F)F)NC(=O)[C@H](CC(=O)O)NC1=O)NC(=O)[C@H](CC(C)(C)C)NC(=O)[C@H](CC(=O)O)NC2=O` (stereo partly drawn) [I-1752, Ac-PL3-Asp-Npg-B5-Asp-TfeGA-Ala-Ala-Phe-Leu-PyrS2-3Thi-BztA-Val-NH2]: the pIC50 is 7.06.
With `CC(=O)N1CCC[C@]12CCCCCCC1(CCCCCCCCOC(=O)N3CC[C@@](C(=O)N[C@@H](Cc4ccsc4)C(=O)N[C@@H](Cc4csc5ccccc45)C(=O)N[C@@H](CC(C)C)C(N)=O)(C3)NC(=O)[C@H](CC(C)C)NC(=O)[C@H](Cc3ccccc3)NC(=O)[C@H](C)NC(=O)[C@H](C)NC(=O)[C@H](CN(CC(=O)O)CC(F)(F)F)NC(=O)[C@H](CC(=O)O)NC1=O)NC(=O)[C@H](CC(C)(C)C)NC(=O)[C@H](CC(=O)O)NC2=O` (stereo partly drawn) [I-1753, Ac-PL3-Asp-Npg-B5-Asp-TfeGA-Ala-Ala-Phe-Leu-PyrS2-3Thi-BztA-Leu-NH2] the figure was 6.10; with `CC(=O)N1CCC[C@]12CCCCCCC1(CCCCCCCCOC(=O)N3CC[C@@](C(=O)N[C@@H](Cc4ccsc4)C(=O)N[C@@H](Cc4csc5ccccc45)C(=O)N[C@@H](CC(C)C)C(N)=O)(C3)NC(=O)[C@H]([C@@H](C)O)NC(=O)[C@H](Cc3ccccc3)NC(=O)[C@H](C)NC(=O)[C@H](C)NC(=O)[C@H](CN(CC(=O)O)CC(F)(F)F)NC(=O)[C@H](CC(=O)O)NC1=O)NC(=O)[C@H](CC(C)(C)C)NC(=O)[C@H](CC(=O)O)NC2=O` (stereo partly drawn) [I-1754, Ac-PL3-Asp-Npg-B5-Asp-TfeGA-Ala-Ala-Phe-Thr-PyrS2-3Thi-BztA-Leu-NH2], 6.18; with `CC(=O)N1CCC[C@]12CCCCCCC1(CCCCCCCCOC(=O)N3CC[C@@](C(=O)N[C@@H](Cc4ccsc4)C(=O)N[C@@H](Cc4csc5ccccc45)C(=O)N[C@@H](Cc4ccccc4)C(N)=O)(C3)NC(=O)[C@H](CC(C)C)NC(=O)[C@H](Cc3ccccc3)NC(=O)[C@H](C)NC(=O)[C@H](C)NC(=O)[C@H](CN(CC(=O)O)CC(F)(F)F)NC(=O)[C@H](CC(=O)O)NC1=O)NC(=O)[C@H](CC(C)(C)C)NC(=O)[C@H](CC(=O)O)NC2=O` (stereo partly drawn) [I-1755, Ac-PL3-Asp-Npg-B5-Asp-TfeGA-Ala-Ala-Phe-Leu-PyrS2-3Thi-BztA-Phe-NH2], 6.24.
Consider `CC(=O)N1CCC[C@]12CCCCCCC1(CCCCCCCCOC(=O)N3CC[C@@](C(=O)N[C@@H](Cc4ccsc4)C(=O)N[C@@H](Cc4csc5ccccc45)C(=O)N[C@@H](Cc4ccccc4)C(N)=O)(C3)NC(=O)[C@H]([C@@H](C)O)NC(=O)[C@H](Cc3ccccc3)NC(=O)[C@H](C)NC(=O)[C@H](C)NC(=O)[C@H](CN(CC(=O)O)CC(F)(F)F)NC(=O)[C@H](CC(=O)O)NC1=O)NC(=O)[C@H](CC(C)(C)C)NC(=O)[C@H](CC(=O)O)NC2=O` (stereo partly drawn) [I-1756, Ac-PL3-Asp-Npg-B5-Asp-TfeGA-Ala-Ala-Phe-Thr-PyrS2-3Thi-BztA-Phe-NH2], for which the pIC50 is 6.48.
